Patent publication US20250197406A1, “INDAZOLES AS HEMATOPOIETIC PROGENITOR KINASE 1 (HPK1) INHIBITORS AND METHODS FOR USING SAME” (1ST Biotherapeutics, Inc., priority 2022, published 2025)
Counter-ions that a name gives are not always drawn.

target: recombinant human HPK1 (Homo sapiens (Human), UniProt Q92918); experiment: HPK1 kinase assay (Promega ADP-Glo kinase assay); format: biochemical; conditions: In vitro activity against HPK1, 5 ng HPK1, MBP substrate, ATP 25 μM, 30° C. 40 minutes
Method: HPK1 kinase activity was measured by Promega's ADP-Glo™ kinase assay. In this assay, 5 ng of recombinant human HPK1 (signalchem) is incubated with 5 μL of compounds (0.5% DMSO), 5 μL of MBP (0.5 μg/μl) and 5 μL of ATP (25 μM) in buffer (40 mM Tris, 7.5; 20 mM MgCl2; 0.1 mg/ml BSA; 50 μM DTT.). The assay was started by incubating the reaction mixture in a 96-well plate at 30° C. for 40 minutes. After the incubation, 25 μL ADP-Glo reagent was added and the reaction was incubated at room temperature for 40-min to stop the reaction and degrade residual ATP. The ADP product was then converted to ATP by adding 50 μL per well of detection reagent. Luminescence was detected after 30-min room temperature incubation with the Molecular device I3X plate reader. The IC50 values were calculated from a series of percent inhibition values determined at a range of inhibitor concentration using software routines as implemented in the GraphPad Prism 7 software and SigmaPlot13.0.

recombinant human HPK1, sequence (Q92918 whole entry): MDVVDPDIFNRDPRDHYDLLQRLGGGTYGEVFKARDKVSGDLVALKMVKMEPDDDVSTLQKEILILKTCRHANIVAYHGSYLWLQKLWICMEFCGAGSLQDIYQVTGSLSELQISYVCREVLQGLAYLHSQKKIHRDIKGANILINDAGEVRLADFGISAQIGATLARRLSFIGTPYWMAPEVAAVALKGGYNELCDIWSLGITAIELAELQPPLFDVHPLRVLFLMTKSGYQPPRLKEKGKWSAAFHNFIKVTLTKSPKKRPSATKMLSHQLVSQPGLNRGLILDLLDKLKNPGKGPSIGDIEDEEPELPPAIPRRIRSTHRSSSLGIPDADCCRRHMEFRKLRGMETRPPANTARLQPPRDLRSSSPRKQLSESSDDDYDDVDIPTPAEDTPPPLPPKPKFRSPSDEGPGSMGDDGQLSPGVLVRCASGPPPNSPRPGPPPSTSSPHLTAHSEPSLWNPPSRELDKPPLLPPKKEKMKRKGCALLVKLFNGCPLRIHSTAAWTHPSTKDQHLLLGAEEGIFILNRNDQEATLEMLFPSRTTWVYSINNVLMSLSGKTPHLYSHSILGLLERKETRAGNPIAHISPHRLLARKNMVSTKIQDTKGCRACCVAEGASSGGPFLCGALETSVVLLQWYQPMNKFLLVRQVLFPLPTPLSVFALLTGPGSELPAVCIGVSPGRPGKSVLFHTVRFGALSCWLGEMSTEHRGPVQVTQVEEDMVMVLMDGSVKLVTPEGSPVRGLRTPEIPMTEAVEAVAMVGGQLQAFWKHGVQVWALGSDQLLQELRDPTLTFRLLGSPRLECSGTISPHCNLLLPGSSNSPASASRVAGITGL

| SMILES | IC50 [nM] |
| --- | --- |
| O=C(Nc1cn2cc(-c3c(C(F)F)c(F)c(C(C4CC4)N4C(=O)c5ccccc5C4=O)c4[nH]ncc34)ncc2n1)[C@@H]1C[C@@H]1F (stereo partly drawn) [Example 48, (1S,2S)-N-(6-(7-(cyclopropyl(1,3-dioxoisoindolin-2-yl)methyl)-5-(difluoromethyl)-6-fluoro-1H-indazol-4-yl)imidazo[1,2-a]pyrazin-2-yl)-2-fluorocyclopropane-1-carboxamide] | < 100 |
| CC(C)Nc1c(F)c(Cl)c(-c2cn3cc(NC(=O)N4CCOCC4)nc3cn2)c2cn[nH]c12 [Example 84, N-(6-(5-chloro-6-fluoro-7-(isopropylamino)-1H-indazol-4-yl)imidazo[1,2-a]pyrazin-2-yl)morpholine-4-carboxamide] | < 100 |
| COc1c(F)c(C(O)C2CC2)c2[nH]ncc2c1-c1cn2cc(NC(=O)[C@@H]3C[C@@H]3F)nc2cn1 (stereo partly drawn) [Example 127, (1S,2S)-N-(6-(7-(cyclopropyl(hydroxy)methyl)-6-fluoro-5-methoxy-1H-indazol-4-yl)imidazo[1,2-a]pyrazin-2-yl)-2-fluorocyclopropane-1-carboxamide] | < 100 |
| C[C@@H](N[S@+]([O-])C(C)(C)C)c1c(F)c(Cl)c(-c2cn3cc(NC(=O)[C@@H]4C[C@@H]4F)nc3cn2)c2cn[nH]c12 [Example 133, (1S,2S)-N-(6-(7-((R)-1-(((R)-tert-butylsulfinyl)amino)ethyl)-5-chloro-6-fluoro-1H-indazol-4-yl)imidazo[1,2-a]pyrazin-2-yl)-2-fluorocyclopropane-1-carboxamide] | < 100 |
| CC(N[S+]([O-])C(C)(C)C)c1c(F)c(Cl)c(-c2cn3cc(NC(=O)[C@@H]4C[C@@H]4F)nc3cn2)c2cn[nH]c12 (stereo partly drawn) [Example 86, (1S,2S)-N-(6-(7-(1-((tert-butylsulfinyl)amino)ethyl)-5-chloro-6-fluoro-1H-indazol-4-yl)imidazo[1,2-a]pyrazin-2-yl)-2-fluorocyclopropane-1-carboxamide] | < 100 |
| CC(C)(C)[S+]([O-])NC(c1c(F)c(C(F)(F)F)c(-c2cn3cc(NC(=O)[C@@H]4C[C@@H]4F)nc3cn2)c2cn[nH]c12)C1CC1 (stereo partly drawn) [Example 97, (1S,2S)-N-(6-(7-(((tert-butylsulfinyl)amino)(cyclopropyl)methyl)-6-fluoro-5-(trifluoromethyl)-1H-indazol-4-yl)imidazo[1,2-a]pyrazin-2-yl)-2-fluorocyclopropane-1-carboxamide] | < 100 |
| CC(c1c(F)c(C(F)F)c(-c2cn3cc(NC(=O)[C@@H]4C[C@@H]4F)nc3cn2)c2cn[nH]c12)N1C(=O)c2ccccc2C1=O (stereo partly drawn) [Example 50, (1S,2S)-N-(6-(5-(difluoromethyl)-7-(1-(1,3-dioxoisoindolin-2-yl)ethyl)-6-fluoro-1H-indazol-4-yl)imidazo[1,2-a]pyrazin-2-yl)-2-fluorocyclopropane-1-carboxamide] | < 100 |
| CN(C)c1c(F)c(C(F)(F)F)c(-c2cn3cc(NC(=O)[C@@H]4C[C@H]4F)nc3cn2)c2cn[nH]c12 [Example 30, (1S,2R)-N-(6-(7-(dimethylamino)-6-fluoro-5-(trifluoromethyl)-1H-indazol-4-yl)imidazo[1,2-a]pyrazin-2-yl)-2-fluorocyclopropane-1-carboxamide] | < 100 |
| NC(c1c(F)c(C(F)(F)F)c(-c2cn3cc(NC(=O)[C@@H]4C[C@@H]4F)nc3cn2)c2cn[nH]c12)C1CC1 (stereo partly drawn) [Example 44, (1S,2S)-N-(6-(7-(amino(cyclopropyl)methyl)-6-fluoro-5-(trifluoromethyl)-1H-indazol-4-yl)imidazo[1,2-a]pyrazin-2-yl)-2-fluorocyclopropane-1-carboxamide] | < 100 |
| Cc1c(F)c(C(O)C2CC2)c2[nH]ncc2c1-c1cn2cc(NC(=O)[C@@H]3C[C@@H]3F)nc2cn1 (stereo partly drawn) [Example 1, (1S,2S)-N-(6-(7-(cyclopropyl(hydroxy)methyl)-6-fluoro-5-methyl-1H-indazol-4-yl)imidazo[1,2-a]pyrazin-2-yl)-2-fluorocyclopropane-1-carboxamide] | < 100 |
| CC(C)Nc1c(F)c(Cl)c(-c2cn3cc(NC(=O)[C@@H]4C[C@@H]4CF)nc3cn2)c2cn[nH]c12 [Example 94, (1R,2S)-N-(6-(5-chloro-6-fluoro-7-(isopropylamino)-1H-indazol-4-yl)imidazo[1,2-a]pyrazin-2-yl)-2-(fluoromethyl)cyclopropane-1-carboxamide] | < 100 |
| CC(=O)Nc1cn2cc(-c3c(Cl)c(F)c(CN4CCC(O)C4)c4[nH]ncc34)ncc2n1 (centres unmarked) [Example 151, N-(6-(5-chloro-6-fluoro-7-((3-hydroxypyrrolidin-1-yl)methyl)-1H-indazol-4-yl)imidazo[1,2-a]pyrazin-2-yl)acetamide] | 501 to 1000 |
| CC(=O)Nc1cn2cc(-c3c(C(F)(F)F)c(F)c(NC(C)C)c4[nH]ncc34)ncc2n1 [Example 83, N-(6-(6-fluoro-7-(isopropylamino)-5-(trifluoromethyl)-1H-indazol-4-yl)imidazo[1,2-a]pyrazin-2-yl)acetamide] | < 100 |
| O=C(Nc1cn2cc(-c3c(Cl)c(F)c(OC4CNC4)c4[nH]ncc34)ncc2n1)[C@@H]1C[C@@H]1F [Example 143, (1S,2S)-N-(6-(7-(azetidin-3-yloxy)-5-chloro-6-fluoro-1H-indazol-4-yl)imidazo[1,2-a]pyrazin-2-yl)-2-fluorocyclopropane-1-carboxamide formate] | 501 to 1000 |
| CC(=O)Nc1cn2cc(-c3c(Cl)c(F)c([C@@H](C)NC(=O)C(F)(F)F)c4[nH]ncc34)ncc2n1 [Example 139, (R)-N-(1-(4-(2-acetamidoimidazo[1,2-a]pyrazin-6-yl)-5-chloro-6-fluoro-1H-indazol-7-yl)ethyl)-2,2,2-trifluoroacetamide] | < 100 |
| CCOC(=O)Nc1cn2cc(-c3c(Cl)c(F)c(NC(C)C)c4[nH]ncc34)ncc2n1 [Example 114, ethyl (6-(5-chloro-6-fluoro-7-(isopropylamino)-1H-indazol-4-yl)imidazo[1,2-a]pyrazin-2-yl)carbamate] | < 100 |
| COc1c(F)c(NC(C)C)c2[nH]ncc2c1-c1cn2cc(NC(=O)[C@@H]3C[C@@H]3F)nc2cn1 [Example 141, (1S,2S)-2-fluoro-N-(6-(6-fluoro-7-(isopropylamino)-5-methoxy-1H-indazol-4-yl)imidazo[1,2-a]pyrazin-2-yl)cyclopropane-1-carboxamide] | < 100 |
| CN(C)c1c(F)c(C(F)F)c(-c2cn3cc(NC(=O)[C@@H]4C[C@@H]4F)nc3cn2)c2cn[nH]c12 [Example 17, (1S,2S)-N-(6-(5-(difluoromethyl)-7-(dimethylamino)-6-fluoro-1H-indazol-4-yl)imidazo[1,2-a]pyrazin-2-yl)-2-fluorocyclopropane-1-carboxamide] | < 100 |
| CC(C)Nc1c(F)c(C(F)F)c(-c2cn3cc(NC(=O)C4CC4)nc3cn2)c2cn[nH]c12 [Example 156, N-(6-(5-(difluoromethyl)-6-fluoro-7-(isopropylamino)-1H-indazol-4-yl)imidazo[1,2-a]pyrazin-2-yl)cyclopropanecarboxamide] | < 100 |
| CC(=O)N(C)c1cn2cc(-c3c(Cl)c(F)c(NC(C)C)c4[nH]ncc34)ncc2n1 [Example 102, N-(6-(5-chloro-6-fluoro-7-(isopropylamino)-1H-indazol-4-yl)imidazo[1,2-a]pyrazin-2-yl)-N-methylacetamide] | 501 to 1000 |
| NC(c1c(F)c(C(F)F)c(-c2cn3cc(NC(=O)[C@@H]4C[C@@H]4F)nc3cn2)c2cn[nH]c12)C1CC1 (stereo partly drawn) [Example 41, (1S,2S)-N-(6-(7-(amino(cyclopropyl)methyl)-5-(difluoromethyl)-6-fluoro-1H-indazol-4-yl)imidazo[1,2-a]pyrazin-2-yl)-2-fluorocyclopropane-1-carboxamide] | < 100 |
| CC(C)Nc1c(F)c(Cl)c(-c2cn3cc(NC(=O)[C@@H]4C[C@@H]4C(=O)O)nc3cn2)c2cn[nH]c12 [Example 20, (1S,2R)-2-((6-(5-chloro-6-fluoro-7-(isopropylamino)-1H-indazol-4-yl)imidazo[1,2-a]pyrazin-2-yl)carbamoyl)cyclopropane-1-carboxylic acid] | < 100 |
| CCNC(=O)[C@H]1C[C@H]1C(=O)Nc1cn2cc(-c3c(Cl)c(F)c(NC(C)C)c4[nH]ncc34)ncc2n1 [Example 29, (1R,2S)-N1-(6-(5-chloro-6-fluoro-7-(isopropylamino)-1H-indazol-4-yl)imidazo[1,2-a]pyrazin-2-yl)-N2-ethylcyclopropane-1,2-dicarboxamide] | < 100 |
| CC(C)Nc1c(F)c(Cl)c(-c2cn3cc(NC(=O)[C@H](C)N)nc3cn2)c2cn[nH]c12 [Example 79, (S)-2-amino-N-(6-(5-chloro-6-fluoro-7-(isopropylamino)-1H-indazol-4-yl)imidazo[1,2-a]pyrazin-2-yl)propanamide] | < 100 |
| CC(C)Nc1c(F)c(Cl)c(-c2cn3cc(NC(=O)C4CCN4)nc3cn2)c2cn[nH]c12 (centres unmarked) [Example 108, N-(6-(5-chloro-6-fluoro-7-(isopropylamino)-1H-indazol-4-yl)imidazo[1,2-a]pyrazin-2-yl)azetidine-2-carboxamide] | 101 to 500 |
| CC(NC=O)c1c(F)c(C(F)(F)F)c(-c2cn3cc(NC(=O)[C@@H]4C[C@@H]4F)nc3cn2)c2cn[nH]c12 (stereo partly drawn) [Example 96, (1S,2S)-2-fluoro-N-(6-(6-fluoro-7-(1-formamidoethyl)-5-(trifluoromethyl)-1H-indazol-4-yl)imidazo[1,2-a]pyrazin-2-yl)cyclopropane-1-carboxamide] | < 100 |
